One compound from publication PMC9249674, “A small-molecule Skp1 inhibitor elicits cell death by p53-dependent mechanism” (iScience, 2022) can be followed below.

Assay [1] deals with T1, Skp1 (Q97A) (Homo sapiens, UniProt P63208, Q97A).
T1 construct: His6; made in house; host or cells: Escherichia coli BL21 (DE3)
Kind of assay: SPRi assay, Skp1 mutant. Format: binding. As for the experimental part:
(§1) Freshly deposited gold coated standard SPRi chips/slides (Plexera, LLC) were cleaned, and compound(s) at 10 mM concentration in 100% DMSO were spotted on the chips using a micropipette. After this, the slides were left for complete evaporation of DMSO (under vacuum) at room temperature for 2 hrs. After printing, the slides were exposed to UV irradiation 2.4 J/cm^2 (365 nm) in a UV chamber (Amersham life science). The slides were subsequently washed with DMSO, ethanol, and finally with distilled water for 15 minutes (ultrasonically), respectively, to remove non-covalently bound compounds. After drying with nitrogen, the slides were assembled with flow cell and then mounted on SPRi instrument for measurement, or stored at 4°C to be used for later experiments.
(§2) All the experiments were carried out using the PlexArray® HT system (Plexera, LLC), which is based on surface plasmon resonance imaging. Oval regions of interests (ROIs) were set as 9 pixels × 7 pixels area in imaging area. ROIs of vehicle (DMSO) were used as controls for measurement of specific signals. All samples were injected with an association and dissociation flow rate of 3 μL s^−1 and at 25°C. A 1:3 mixture of glycine. HCL (pH 4.2) and 0.5% (v/v) SDS, respectively, was used to regenerate the surface and remove bound proteins from the small molecules enabling the sensor chip to be reused for additional analyte injections.
(§3) The Tris buffer (10 mM Tris-HCl pH 8.0, 100 mM NaCl), without any reducing agent, was used as both analyte and running buffer. Purified recombinant proteins, including Skp1^WT, ΔSkp1^1−140, and any of the desired mutant(s), were in the Tris buffer (10 mM Tris-HCl pH 8.0, 100 mM NaCl). For testing the compound(s), multiple concentrations (0.5 μM, 1 μM, 4 μM and 8 μM) of Skp1^WT or ΔSkp1^1−140 were flowed on the SPRi instrument as analyte to get accurate kinetic parameters. A typical sample injection cycle consists of 300 seconds association phase with the analyte solution and 400 seconds dissociation phase with running buffer at 3 μL s^−1 flow rate. Other purified proteins such as mutant forms of Skp1 were tested to confirm binding pocket specificity. The highest concentration tested for each protein was 8 μM. For data analysis, we choose two software packages, ORIGIN Lab and Data Analysis Module (DAM) of Plexera. All data from SPRi reported here are after subtraction of the background intensity/signal by DAM software. In short, the entire concentration of analyte was fitted with a 1:1 Langmuir interaction integrated rate equation to obtain the kinetic constants.

Assay [2] has as its target T2, Skp1 (F101A) (Homo sapiens, UniProt P63208, F101A).
T2 construct: His6; made in house; host or cells: Escherichia coli BL21 (DE3)
Kind of assay: SPRi assay, Skp1 mutant. The class given is binding. The method, then:
as §1, §2, §3

The target in assay [3] is T3, Skp1 (F139D) (Homo sapiens, UniProt P63208, F139D).
T3 construct: His6; made in house; host or cells: Escherichia coli BL21 (DE3)
Kind of assay: SPRi assay, Skp1 mutant. Format: binding. The method, then:
as §1, §2, §3

The target in assay [4] is T4, Skp1 (V123D) (Homo sapiens, UniProt P63208, V123D).
T4 construct: His6; made in house; host or cells: Escherichia coli BL21 (DE3)
Kind of assay: SPRi assay, Skp1 mutant. The class given is binding. The method, then: as §1, §2, §3

Assay [5] deals with T5, Skp1 (F101W_V123T) (Homo sapiens, UniProt P63208, F101W/V123T).
T5 construct: His6; made in house; host or cells: Escherichia coli BL21 (DE3)
The experiment in a line: SPRi assay, Skp1 mutant. The class given is binding. As for the experimental part: as §1, §2, §3

Assay [6] has as its target T6, Skp1 (F101A_F139A) (Homo sapiens, UniProt P63208, F101A/F139A).
T6 construct: His6; made in house; host or cells: Escherichia coli BL21 (DE3)
Kind of assay: SPRi assay, Skp1 mutant. The class given is binding. As for the experimental part:
as §1, §2, §3

Assay [7] addresses T7, Skp1^F139A (Homo sapiens, UniProt P63208, F139A).
T7 construct: His6; made in house; host or cells: Escherichia coli BL21 (DE3)
The experiment in a line: SPRi assay, Skp1 mutant. Format: binding. As for the experimental part:
as §1, §2, §3

In assay [8] the target is T8, Skp1^WT (Homo sapiens, UniProt P63208).
T8 construct: recombinantly purify intact (Skp1^WT) and truncate (ΔSkp1^1−140; lacking H8-helix) forms of Skp1; His6; made in house; host or cells: Escherichia coli BL21 (DE3)
The experiment in a line: LC-MS/MS analysis of in vitro binding. As to conditions: overnight incubation.

Assay [9] deals with A549 cells. The experiment in a line: Caspase-Glo 3/7 activity. Format: cell-based, human. The note with it: dose- and time-dependent treatment. The method, then: The activities of caspase-3/7, −8 and −9 were measured using Caspase-Glo® 3/7,8, and 9 assay kits (Promega, Madison, WI, USA) according to the manufacturer’s protocol. Briefly, the cells were plated over-night in a white 384 well microplate, and then treated as indicated with Z0933M. After treatment, 25 μL of each caspase substrate was added and incubated at room temperature for 30 min. Upon activation of caspase in the apoptotic cells, the substrate will give a luminescence signal after cleavage of the aminoluciferin-labelled synthetic tetrapeptide. Luminescent signals were detected using an EnSpire multimode plate reader (PerkinElmer). For inhibitor interventions and Skp1 overexpression, the experiments were performed in 96 well format.

The target in assay [10] is T9, ΔSkp1^1−140 (Homo sapiens, UniProt P63208).
T9 construct: pETDuet-Skp1(1-140); His6; made in house; host or cells: Escherichia coli BL21 (DE3)
Kind of assay: LC-MS/MS analysis of in vitro binding. The note with it: ΔSkp1^1−140, overnight incubation.

Assay [11] has as its target T10, Skp1 interaction with NIPA (Homo sapiens, UniProt P63208).
T10 construct: host or cells: HEK293
Kind of assay: Cell-based FRET assay in HEK293 cells. The note with it: 4 hrs, increasing concentrations.

For assay [12], the target named is T9, ΔSkp1^1−140. Kind of assay: SPRi assay. The class given is binding.
Protocol: Freshly deposited gold coated standard SPRi chips/slides (Plexera, LLC) were cleaned, and compound(s) at 10 mM concentration in 100% DMSO were spotted on the chips using a micropipette. After this, the slides were left for complete evaporation of DMSO (under vacuum) at room temperature for 2 hrs. […] The slides were subsequently washed with DMSO, ethanol, and finally with distilled water for 15 minutes (ultrasonically), respectively, to remove non-covalently bound compounds. After drying with nitrogen, the slides were assembled with flow cell and then mounted on SPRi instrument for measurement, or stored at 4°C to be used for later experiments.
All the experiments were carried out using the PlexArray® HT system (Plexera, LLC), which is based on surface plasmon resonance imaging. Oval regions of interests (ROIs) were set as 9 pixels × 7 pixels area in imaging area. ROIs of vehicle (DMSO) were used as controls for measurement of specific signals. […] A 1:3 mixture of glycine. HCL (pH 4.2) and 0.5% (v/v) SDS, respectively, was used to regenerate the surface and remove bound proteins from the small molecules enabling the sensor chip to be reused for additional analyte injections.
The Tris buffer (10 mM Tris-HCl pH 8.0, 100 mM NaCl), without any reducing agent, was used as both analyte and running buffer. […]
Assay [13] has as its system panel of cell lines derived from hematologic and solid tumors. Kind of assay: Cell viability, panel of cell lines. The class given is cell-based. The note with it: all the lines tested with complete cell killing; read-out: EC50 values across the panel. As for the experimental part: For cell viability, cells were seeded in 384 opaque-walled plates with clear bottoms at 300–500 cells per well (optimum density for growth) in a total volume of 20 μL of media. The media was according to culture conditions of each individual cell line (mentioned above). After 12 hrs, compounds were added in a total volume of 5 μL of media (two-fold diluted) to each well with final concentrations from 5 nM to 30 μM. The measurements were conducted 48 hrs after seeding of the cells. Then, 25 μL of Cell-Titer GLO reagent (Promega) was added, and luminescence was measured on an EnSpire multimode plate reader (PerkinElmer), according to the manufacturer’s instructions. The estimated in vitro half-maximal inhibitory concentration (EC50) values were calculated using GraphPad Prism® v6.0 (San Diego, CA) software. The cell viability for A549 cells was also performed for 72- and 96-hrs by using the same experimental conditions as described above.

T9 sequence (P63208 1-140, stated change not applied): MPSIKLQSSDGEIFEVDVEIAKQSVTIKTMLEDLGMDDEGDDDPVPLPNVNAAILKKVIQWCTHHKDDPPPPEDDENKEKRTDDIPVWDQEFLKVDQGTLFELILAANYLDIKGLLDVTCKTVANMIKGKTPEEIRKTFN
T3 sequence (P63208 whole entry F139D): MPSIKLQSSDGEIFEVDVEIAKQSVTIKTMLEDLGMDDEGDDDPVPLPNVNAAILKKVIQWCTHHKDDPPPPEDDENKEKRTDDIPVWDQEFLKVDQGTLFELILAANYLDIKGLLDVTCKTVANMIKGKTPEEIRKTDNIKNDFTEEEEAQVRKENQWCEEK
T7 sequence (P63208 whole entry F139A): as the sequence (P63208 whole entry F139D) above, with D139A counted along it
T6 sequence (P63208 whole entry F101A/F139A): as the sequence (P63208 whole entry F139D) above, with F101A, D139A counted along it
T2 sequence (P63208 whole entry F101A): as the sequence (P63208 whole entry F139D) above, with F101A, D139F counted along it
T5 sequence (P63208 whole entry F101W/V123T): as the sequence (P63208 whole entry F139D) above, with F101W, V123T, D139F counted along it
T10 sequence (P63208 whole entry): as the sequence (P63208 whole entry F139D) above, with D139F counted along it
T8 sequence (P63208 whole entry, the tested form may be a part): as the sequence (P63208 whole entry F139D) above, with D139F counted along it
T4 sequence (P63208 whole entry V123D): as the sequence (P63208 whole entry F139D) above, with V123D, D139F counted along it
T1 sequence (P63208 whole entry Q97A): as the sequence (P63208 whole entry F139D) above, with Q97A, D139F counted along it

Consider `Nc1ccc(-c2nc3ccccc3c3[nH]c4ccccc4c23)cc1` [Z0933M], for which the equilibrium dissociation constant (Kd) in assay [1] came out at 477 ± 4.95 nM; in assay [2], 374 ± 45.6 nM; in assay [3], 1140 ± 95.5 nM; in [4], 1270 ± 95.5 nM; in assay [5] it was 336 ± 36.8 nM; in assay [6], 799 ± 54.8 nM. The values for the equilibrium dissociation constant (Kd) in assay [7] and in assay [12] were 455 ± 47.7 nM and 40.4 ± 8.2 nM, respectively. Moreover, the “binding by LC-MS/MS” value in [8] and in assay [10] was “robust binding” throughout. Besides, the “caspase 3/7 activity” value in [9] is “dose- and time-dependently induced caspase 3/7 activity”. Moreover, the “inhibition of Skp1-NIPA interaction (FRET ratio)” value in assay [11] is “significant inhibition”. Further, the EC50 in [13] lay in the range of 250 to 4000 nM.
